Measured values: patent US20080214589A1, “Thrombin Inhibiting 2,4-Dioxo-3,4-Dihydropyrimidine Derivatives” (ASTRAZENECA AB, priority 2005, published 2008)

Target: T1, Human a-thrombin (Homo sapiens, UniProt P00734)
T1 construct: Human a-thrombin, Sigma Chemical Co. or Hematologic Technologies; purchased Sigma Chemical Co. or Hematologic Technologies
Assay: Test B: thrombin inhibition with a chromogenic, robotic assay
Type: biochemical
Conditions: chromogenic substrate S-2366, 40 minutes incubation at 37° C.
Protocol: Determination of Thrombin Inhibition with a Chromogenic, Robotic Assay
The thrombin inhibitor potency is measured with a chromogenic substrate method, in a Plato 3300 robotic microplate processor (Rosys AG, CH-8634 Hombrechtikon, Switzerland), using 96-well, half volume microtitre plates (Costar, Cambridge, Mass., USA; Cat No 3690). Stock solutions of test substance in DMSO (72 μL), 0.1-1 mmol/L, are diluted serially 1:3 (24+48 μL) with DMSO to obtain ten different concentrations, which are analysed as samples in the assay. 2 μL of test sample is diluted with 124 μL assay buffer, 12 μL of chromogenic substrate solution (S-2366, Chromogenix, Mölndal, Sweden) in assay buffer and finally 12 μL of a-thrombin solution (Human a-thrombin, Sigma Chemical Co. or Hematologic Technologies) in assay buffer, are added, and the samples mixed. The final assay concentrations are: test substance 0.00068-133 μmol/L, S-2366 0.30 mmol/L, a-thrombin 0.020 NIHU/mL. The linear absorbance increment during 40 minutes incubation at 37° C. is used for calculation of percentage inhibition for the test samples, as compared to blanks without inhibitor. The IC50-robotic value, corresponding to the inhibitor concentration which causes 50% inhibition of the thrombin activity, is calculated from a log concentration vs. % inhibition curve.

Row | IC50 [nM] | Compound
1 | 32.7 | Cc1cc(=O)n(NCC(F)(F)c2ccccn2)c(=O)n1CC(=O)NCc1cc(Cl)ccc1CN [Example 2, N-[2-(Aminomethyl)-5-chlorobenzyl]-2-[3-[(2,2-difluoro-2-pyridin-2-ylethyl)-amino]-6-methyl-2,4-dioxo-3,4-dihydropyrimidin-1(2H)-yl]acetamide]
2 | 169 | Cc1cc(N)nc(C)c1CNC(=O)Cn1c(C)cc(=O)n(NCC(F)(F)c2ccccn2)c1=O [5(a), N-[(6-Amino-2,4-dimethylpyridin-3-yl)methyl]-2-[3-[(2,2-difluoro-2-pyridin-2-ylethyl)amino]-6-methyl-2,4-dioxo-3,4-dihydropyrimidin-1(2H)-yl]acetamide]
